Assays:
phenoloxidase (POX) = experiment: Phenoloxidase activity of treated bees (individual immunity); assay type: in vivo, Apis mellifera; details: 24- and 72-h exposure
Protocol: (§1) Individual bees were sampled at 24-h intervals and frozen in liquid nitrogen. Social immunity was measured by quantifying the metabolism of glucose to hydrogen peroxide by glucose oxidase. Briefly, heads were homogenized in ice-cold extraction buffer then centrifuged at 15,000×g. Aliquots of supernatant were incubated with horse radish peroxidase and glucose at 37 °C, then combined with the chromogen o-dianisidine dihydrochloride. Absorbance was read at 430 nm over a period of 90 min and compared to sample blanks, lacking chromogen. To measure individual immunity, phenoloxidase activity was measured as described. Abdomens were homogenized as and centrifuged as previously described. Supernatant was incubated at 37 °C, then combined with the chromogen L-Dopa. Absorbance was measured at 490 nm for 20 min, then compared to sample blanks lacking chromogen. To compare both glucose oxidase and phenol oxidase activity between samples, Vmax was calculated using the Michaelis–Menten equation.

IAPV = IAPV mRNA titer in excised dorsal vessels by qRT-PCR; assay type: in vivo, Israeli acute paralysis virus; details: pinacidil 24 h prior to IAPV inoculation; vessels excised 24 h post-inoculation
Protocol: Groups of 30 age-matched bees were fed 1:1 sucrose diet alone or containing KATP modulators or 0.5 mg/mL paraquat for 24 h. Bees were immobilized on ice, then injected with PBS alone or containing IAPV and returned to the incubator. Mortality assessments and sampling of survivors were conducted at 24-h intervals. Quantification of IAPV mRNA among whole bees and excised insect dorsal vessels was performed by qRT-PCR as detailed below.
(§2) Samples were removed from − 80 °C storage and placed in a nuclease-free chilled bead bath (~ 4 °C) to gently thaw. […] RNA concentrations were then quantified for each sample using the NanoDrop 1-C® instrument. […] Library construction was performed using the Quantitect Reverse Transcription kit according to manufacturer instructions (Qiagen, N.V.). Template cDNA was then quantified by NanoDrop 1-C® and standardized to 500 ng/uL by addition of nuclease-free H2O.
To accurately quantify virus infection, it was necessary to first construct a standard curve for each target virus. […] Single-stranded DNA concentration was quantified for each cDNA library with the NanoDrop 1-C® instrument (Thermofisher Scientific) and the number of amplicon copies per μL of solution was determined using online calculators available at SciencePrimer.com. […]

DWV-B = experiment: Field colony study, change in virus titer by qRT-PCR: DWV-B; assay type: in vivo, Deformed Wing virus
Protocol: Nucleus colonies of bees were established as previously described and relocated to a geographically isolated apiary and were grown to full-size colonies and equalized based on population prior to initiation of the study. The bees were maintained in eight-frame Langstroth equipment and kept as single deeps with a medium super with undrawn foundation. […] DWV inoculum was prepared by injecting filter-sterilized homogenate from a DWV-positive symptomatic bee into white-eyed honey bee pupae. 72-h later, an aliquot of pupae was screened for preliminary confirmation of DWV infection and found to contain between 5E9 and 8E9 viral copies of DWV-A per individual. Remaining pupae were homogenized in ice-cold PBS, with aliquots retained for qRT-PCR screening of DWV, as well as additional viruses relevant to bee health. Homogenate solutions were diluted in 1:1 sucrose and placed in calibrated spray bottles. A treatment and sampling schedule was constructed based on the 21-day egg-to-adult life history of worker bees (Additional file 1: Fig. S1). Both pinacidil and virus solutions were prepared fresh daily. […] A quantity of 15 fully formed adult stage bees were removed from the capped cells and placed into 15 mL conical vials. All samples were stored on dry ice during field collection, then transferred to − 80 °C until virus quantification. Titers of DWV-A, DWV-B, BQCV, IAPV, LSV-1 and LSV-2 were quantified by qRT-PCR using primer sequences described in our previous publications.
as §2
To accurately quantify virus infection, it was necessary to first construct a standard curve for each target virus. […]

glucose oxidase (GOX) = experiment: Glucose oxidase activity of treated bees (social immunity); assay type: in vivo, Apis mellifera
Protocol: as §1

[1] = system: total antioxidant concentrations in bees; experiment: Total antioxidant capacity of bees (quantification of ROS); assay type: in vivo, Apis mellifera; details: alone
Protocol: The ability of KATP modulators to rescue or synergize paraquat-induced mortality was then assessed by incorporating modulators into 1:1 sucrose containing paraquat. […] Quantification of ROS among survivors was performed using the Total Antioxidant Capacity Assay kit (Cayman Chemical).

Structure (SMILES): CC(N/C(=N\C#N)Nc1ccncc1)C(C)(C)C (stereo not drawn) [pinacidil]
- POX activity (phenoloxidase (POX)): no statistical differences
- Reduction in IAPV mRNA titer in the dorsal vessel versus IAPV-inoculated bees (IAPV): 17.5 fold
- Change of DWV-B titer versus uninoculated colonies (DWV-B; emerging brood, 2 mM pinacidil): not significantly different
- Reduction of change in DWV-B titer compared to virus only inoculated colonies (DWV-B; emerging brood, 2 mM pinacidil, colony level): sixfold
- DWV-B titers, virus only versus pinacidil + virus (DWV-B; nurse/forager bees): not significantly different
- Increase in GOX activity compared to untreated bees (glucose oxidase (GOX); 24-h exposure): 3 fold
- Increase in GOX activity compared to untreated bees (glucose oxidase (GOX); 72-h exposure): 2.3 fold
- Antioxidant levels compared to untreated individuals ([1]; 24 h post-treatment): did not reduce
- Reduction of total antioxidant concentrations ([1]; 72 h): 1.5 fold
